Read-outs that look alike come from different tables or passages of the source.
System: ARE gene family (AKR1B10, AKR1C1, AKR1C2, CYP1B1, FTH1P, FTL, G6PD, GCLM, NQO2, SLC7A11, TXNRD1, UGT1A1, UGT1A9, YWHAZ, CD36, CYP1A1, GCLC, HMOX1, NQO1, PSME2 …)

Nc1ccccc1O [2-aminophenol]
NQO2 grade (NUMBER OF GENES) (1%): 0 (if this expression is lower, the grade is 0)
S100A8 expression compared to control (1%): 1.2
S100A8 grade (NUMBER OF GENES) (1%): 0 (if this expression is lower, the grade is 0)
SLC7A11 expression compared to control (1%): 3.2
SLC7A11 grade (NUMBER OF GENES) (1%): 1 (If the expression is greater than 1.3 compared to the control, a grade of 11s given)
TOTAL ARE (NUMBER OF GENES) (1%): 10
TXNRD1 expression compared to control (1%): 4.8
TXNRD1 grade (NUMBER OF GENES) (1%): 1 (If the expression is greater than 1.3 compared to the control, a grade of 11s given)
UGT1A1 expression compared to control (1%): 1.6
UGT1A1 grade (NUMBER OF GENES) (1%): 1 (If the expression is greater than 1.3 compared to the control, a grade of 11s given)
UGT1A9 expression compared to control (1%): 1.0
UGT1A9 grade (NUMBER OF GENES) (1%): 0 (if this expression is lower, the grade is 0)
AHR expression compared to control (10%): 0.7
AHR grade (NUMBER OF GENES) (10%): 0 (if this expression is lower, the grade is 0)
AKR1B10 expression compared to control (10%): 1.1
AKR1B10 grade (NUMBER OF GENES) (10%): 0 (if this expression is lower, the grade is 0)
AKR1C1 expression compared to control (10%): 9.3
AKR1C1 grade (NUMBER OF GENES) (10%): 1 (If the expression is greater than 1.3 compared to the control, a grade of 11s given)
AKR1C2 expression compared to control (10%): 3.4
AKR1C2 grade (NUMBER OF GENES) (10%): 1 (If the expression is greater than 1.3 compared to the control, a grade of 11s given)
ARE >1.3 (NUMBER OF GENES) (10%): 14
CD36 expression compared to control (10%): 0.5
CD36 grade (NUMBER OF GENES) (10%): 0 (if this expression is lower, the grade is 0)
CYP1A1 expression compared to control (10%): 122.0
CYP1A1 grade (NUMBER OF GENES) (10%): 1 (If the expression is greater than 1.3 compared to the control, a grade of 11s given)
CYP1B1 expression compared to control (10%): 45.1
CYP1B1 grade (NUMBER OF GENES) (10%): 1 (If the expression is greater than 1.3 compared to the control, a grade of 11s given)
FTH1P expression compared to control (10%): 1.5
FTH1P grade (NUMBER OF GENES) (10%): 1 (If the expression is greater than 1.3 compared to the control, a grade of 11s given)
FTL expression compared to control (10%): 2.5
FTL grade (NUMBER OF GENES) (10%): 1 (If the expression is greater than 1.3 compared to the control, a grade of 11s given)
GCLC expression compared to control (10%): 2.3
GCLC grade (NUMBER OF GENES) (10%): 1 (If the expression is greater than 1.3 compared to the control, a grade of 11s given)
GCLM expression compared to control (10%): 4.6
GCLM grade (NUMBER OF GENES) (10%): 1 (If the expression is greater than 1.3 compared to the control, a grade of 11s given)
HMOX1 expression compared to control (10%): 1.7
HMOX1 grade (NUMBER OF GENES) (10%): 1 (If the expression is greater than 1.3 compared to the control, a grade of 11s given)
NQO1 expression compared to control (10%): 2.5
NQO1 grade (NUMBER OF GENES) (10%): 1 (If the expression is greater than 1.3 compared to the control, a grade of 11s given)
NQO2 expression compared to control (10%): 1.4
NQO2 grade (NUMBER OF GENES) (10%): 1 (If the expression is greater than 1.3 compared to the control, a grade of 11s given)
S100A8 expression compared to control (10%): 1.2
S100A8 grade (NUMBER OF GENES) (10%): 0 (if this expression is lower, the grade is 0)
SLC7A11 expression compared to control (10%): 3.8
SLC7A11 grade (NUMBER OF GENES) (10%): 1 (If the expression is greater than 1.3 compared to the control, a grade of 11s given)
TOTAL ARE (NUMBER OF GENES) (10%): 14
TXNRD1 expression compared to control (10%): 7.6
TXNRD1 grade (NUMBER OF GENES) (10%): 1 (If the expression is greater than 1.3 compared to the control, a grade of 11s given)
UGT1A1 expression compared to control (10%): 1.8
UGT1A1 grade (NUMBER OF GENES) (10%): 1 (If the expression is greater than 1.3 compared to the control, a grade of 11s given)
UGT1A9 expression compared to control (10%): 1.2
UGT1A9 grade (NUMBER OF GENES) (10%): 0 (if this expression is lower, the grade is 0)
AHR expression compared to control (50%): 1.3
AHR grade (NUMBER OF GENES) (50%): 0 (if this expression is lower, the grade is 0)
AKR1B10 expression compared to control (50%): 1.3
AKR1B10 grade (NUMBER OF GENES) (50%): 1 (If the expression is greater than 1.3 compared to the control, a grade of 11s given)
AKR1C1 expression compared to control (50%): 8.6
AKR1C1 grade (NUMBER OF GENES) (50%): 1 (If the expression is greater than 1.3 compared to the control, a grade of 11s given)
AKR1C2 expression compared to control (50%): 3.3
AKR1C2 grade (NUMBER OF GENES) (50%): 1 (If the expression is greater than 1.3 compared to the control, a grade of 11s given)
ARE >1.3 (NUMBER OF GENES) (50%): 14
CD36 expression compared to control (50%): 0.7
CD36 grade (NUMBER OF GENES) (50%): 0 (if this expression is lower, the grade is 0)
CYP1A1 expression compared to control (50%): 66.5
CYP1A1 grade (NUMBER OF GENES) (50%): 1 (If the expression is greater than 1.3 compared to the control, a grade of 11s given)
CYP1B1 expression compared to control (50%): 37.7
CYP1B1 grade (NUMBER OF GENES) (50%): 1 (If the expression is greater than 1.3 compared to the control, a grade of 11s given)
FTH1P expression compared to control (50%): 2.0
FTH1P grade (NUMBER OF GENES) (50%): 1 (If the expression is greater than 1.3 compared to the control, a grade of 11s given)
FTL expression compared to control (50%): 3.5
FTL grade (NUMBER OF GENES) (50%): 1 (If the expression is greater than 1.3 compared to the control, a grade of 11s given)
GCLC expression compared to control (50%): 4.0
GCLC grade (NUMBER OF GENES) (50%): 1 (If the expression is greater than 1.3 compared to the control, a grade of 11s given)
GCLM expression compared to control (50%): 4.7
GCLM grade (NUMBER OF GENES) (50%): 1 (If the expression is greater than 1.3 compared to the control, a grade of 11s given)
HMOX1 expression compared to control (50%): 1.9
HMOX1 grade (NUMBER OF GENES) (50%): 1 (If the expression is greater than 1.3 compared to the control, a grade of 11s given)
NQO1 expression compared to control (50%): 3.3
NQO1 grade (NUMBER OF GENES) (50%): 1 (If the expression is greater than 1.3 compared to the control, a grade of 11s given)
NQO2 expression compared to control (50%): 1.3
NQO2 grade (NUMBER OF GENES) (50%): 0 (if this expression is lower, the grade is 0)
S100A8 expression compared to control (50%): 1.3
S100A8 grade (NUMBER OF GENES) (50%): 1 (If the expression is greater than 1.3 compared to the control, a grade of 11s given)
SLC7A11 expression compared to control (50%): 6.0
SLC7A11 grade (NUMBER OF GENES) (50%): 1 (If the expression is greater than 1.3 compared to the control, a grade of 11s given)
TOTAL ARE (NUMBER OF GENES) (50%): 14
TXNRD1 expression compared to control (50%): 6.4
TXNRD1 grade (NUMBER OF GENES) (50%): 1 (If the expression is greater than 1.3 compared to the control, a grade of 11s given)
UGT1A1 expression compared to control (50%): 2.1
UGT1A1 grade (NUMBER OF GENES) (50%): 1 (If the expression is greater than 1.3 compared to the control, a grade of 11s given)
UGT1A9 expression compared to control (50%): 0.4
UGT1A9 grade (NUMBER OF GENES) (50%): 0 (if this expression is lower, the grade is 0)

Source: patent US9255295B2, “Method for evaluating the sensitizing potential of a test compound” (IMMUNOSEARCH, priority 2010, dated 2016)
